The test system of the assay is CEM cells HIV-1 protection, formazan growth assay. The assay is described as follows: NCI AIDS Antiviral Assay. The conditions noted are these: for IC50: measured here: growth of uninfected CEM cells. Put shortly: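 Human CEM cells, uninfected and HIV-1-infected, received five drug concentrations, and growth was read by soluble formazan assay. Compounds giving at least 50% protection were retested; reproducible 100% protection defined confirmed active.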

Active and inactive are the calls of the source.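 How the source made its calls: active means compounds giving half or more protection of infected cells from virus-caused growth loss, again on retest; inactive means the rest.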 Bounds are passed on as bounds.

Consider `O=C(O)c1ccc(CS(=O)(=O)c2ccc([N+](=O)[O-])cc2)c([N+](=O)[O-])c1`, for which the EC50 (as a rule, the midpoint of the concentration-response curve) is above 676 µM and the 50% inhibitory concentration (IC50) (in general, the midpoint of a concentration-inhibition curve) was 324 µM.
On to `O=C1C(=O)N(C2CCCCC2)C(=S)N1C1CCCCC1`, for which the EC50 was above 200 µM and the IC50 was above 200 µM.
Regarding `Cc1cc(=O)[nH]c(CNC(=O)c2cccc(C(=O)NCc3cc(=O)[nH]c(C)n3)c2)n1`, the EC50 was above 617 µM and the 50% inhibitory concentration (IC50) was above 617 µM.
For `O=P1(c2ccccc2)Nc2ccccc2N1c1ccccc1` (stereo not drawn), the EC50 was above 200 µM and the half-maximal inhibitory concentration (IC50) came to 38 µM.
Consider `CC(=O)O[C@@H]1[C@H](OC(=O)CC(C)C)c2c(ccc3ccc(=O)oc23)OC1(C)C`, for which the EC50 was 13.5 µM and the half-inhibitory concentration (IC50) stood at 53.7 µM.
For `COc1ccccc1NC(=O)c1nc2ccc([N+](=O)[O-])cc2nc1C`, in that order: above 148 µM and above 148 µM.
Turning to `O=C1/C(=C/c2ccccc2)CC/C1=C\c1ccccc1`, the outcome was inactive.
For `O=C1CC(O)(c2ccccc2)C(c2ccccc2)=C1c1ccccc1` (stereo not drawn), the result was inactive.
As to `CC1c2c(cc(=O)n(Cc3ccccc3)c2O)C(=O)N1Cc1ccccc1` (stereo not drawn), the EC50 was above 72.4 µM and the IC50 turned out to be 61.7 µM.
Take `O=[N+]([O-])c1ccc2[nH]ncc2c1Cl`: the EC50 is above 200 µM and the IC50 worked out at 9.77 µM.
Regarding `CSc1nc(-c2ccccc2)c2c(n1)-c1ccccc1CC2`, the EC50 is above 12.3 µM and the concentration for half-maximal inhibition (IC50) was above 12.3 µM.
For `O=C(N/C(=C\c1ccccc1)c1nc2ccccc2c(=O)o1)c1ccccc1`, the EC50 was above 200 µM and the IC50 was above 200 µM.
`CCOC(=O)NC1=NCC(C)(C)S1`: the result was inactive.
As to `Nc1ccccc1C(=O)NNC(=O)c1ccccc1N`, the EC50 was above 200 µM and the concentration for half-maximal inhibition (IC50) was above 200 µM.
For `N#C/C(N)=C(\C#N)N=CNc1ccccc1N`, the EC50 was above 200 µM and the IC50 is above 200 µM.
For `CC1(CCCCO)C=CC(S(=O)(=O)c2ccccc2)CC1` (stereo not drawn), the outcome was inactive.
Regarding `Cc1ccc(C)c(NC(=O)CC2SC(=Nc3ccccc3Cl)NC2=O)c1` (stereo not drawn), the EC50 is above 67.6 µM and the IC50 was above 67.6 µM.
Regarding `CSc1n[nH]c(NC(=O)c2ccccc2Cl)n1`, the EC50 was above 132 µM and the IC50 is above 132 µM.
Take `C=CCN=C1N=C(CC(=O)OCC)CS1`: the outcome was inactive.
On the same count and under the same terms, the entry for `COC(=O)/C(C#N)=C1\N=NNN1CCCc1ccccc1` is “inactive”.
Regarding `CC(C)C1SCc2nc3ccccc3n21` (stereo not drawn), the EC50 was above 200 µM and the concentration for half-maximal inhibition (IC50) amounted to 95.5 µM.
For `CCOP(=O)(OCC)/C(C#N)=C/c1cccn1Cc1ccccc1`, in that order: above 200 µM and 25.1 µM.
For `COc1cc(O)c2c(c1)O[C@H](C)C(C)C2=O` (stereo partly drawn), in that order: above 200 µM and above 200 µM.
For `Cc1ncc([N+](=O)[O-])n1CCNC(=O)CCn1ccnc1[N+](=O)[O-]`, in that order: above 200 µM and above 200 µM.
With `CCN(CC)/[N+]([O-])=N/OCOC`, the EC50 is above 200 µM and the 50% inhibitory concentration (IC50) is above 200 µM.
`N#Cc1c(-c2ccc(Cl)cc2)c(-c2ccc(Cl)cc2)nn(CCOC(=O)CCC(=O)O)c1=O`: the EC50 was above 513 µM and the half-inhibitory concentration (IC50) amounted to 0.468 µM.
For `COCn1cnc2c(=O)nc(SC)n(-c3ccccc3)c21`, in that order: above 200 µM and above 200 µM.
For `O=Nc1ccccc1C(=O)O`, in that order: above 151 µM and 47.9 µM.
For `CCC(N)CS(=O)(=O)O` (stereo not drawn), in that order: above 200 µM and above 200 µM.
Regarding `CC(C)(C)c1cc(C(=O)[O-])c([OH2+])c(C(C)(C)C)c1.CC(C)(C)c1cc(C(=O)[O-])c([OH2+])c(C(C)(C)C)c1.[Mn+2]`, the EC50 was above 85.1 µM and the IC50 is 33.9 µM.
Consider `CCOC(=O)/C(=C/c1cccc(Cl)c1)N(CC)CC`, for which the EC50 was above 91.2 µM and the IC50 is above 91.2 µM.
In the case of `CC(C)CCN=c1cc2n(-c3ccc(Cl)cc3)c3ccccc3nc-2cc1Nc1ccc(Cl)cc1`, the outcome was inactive.
For `CCOC(=O)N1CCN(c2ccc3c(C)cc(C)nc3n2)CC1`, the EC50 is above 200 µM and the IC50 is above 200 µM.
As for `COc1cc(C2(O)c3ccccc3C3=NCCN32)cc(OC)c1OC` (stereo not drawn), the EC50 is above 200 µM and the 50% inhibitory concentration (IC50) is above 200 µM.
For `CC1=NN(c2ccccc2)C(=O)C1N=Nc1ccc(Br)cc1C` (stereo not drawn), the EC50 is above 17.4 µM and the IC50 was above 17.4 µM.
`CCCCCCCCCCCCCCCC(=O)OCC1OC(n2cc(F)c(=O)[nH]c2=O)C(NC(=O)N(CCCl)N=O)C(O)C1O` (stereo not drawn): the EC50 was above 20.4 µM and the IC50 worked out at 3.47 µM.
For `CC1=CC(=O)C(C)(C2=NC(C)(C)CO2)c2ccccc21` (stereo not drawn), in that order: 51.3 µM and 575 µM.
For `C=C1C(=O)OC2/C=C(\C)CC(O)/C=C(/CO)CC(OC(=O)/C(C)=C/C)C12` (stereo not drawn), in that order: above 100 µM and 53.7 µM.
For `O=c1cc(N2CCCC2)[nH]c(=O)n1-c1ccccc1`, in that order: above 200 µM and above 200 µM.
Turning to `CCNC(C)(C)C(SSSC(c1ccc(Cl)cc1)C(C)(C)NCC)c1ccc(Cl)cc1` (stereo not drawn), the EC50 is above 200 µM and the half-inhibitory concentration (IC50) stood at 9.12 µM.
In the case of `Cn1cc2c(=O)n(OS(=O)(=O)c3ccccc3)c(=O)[nH]c2n1`, the EC50 was above 200 µM and the concentration for half-maximal inhibition (IC50) was above 200 µM.
As for `C[C@H]1OCN2C(=O)c3ccccc3SC(=O)[C@H]12`, the EC50 is above 200 µM and the IC50 is above 200 µM.
Turning to `[N-]=[N+]=Nc1ccc2c(c1)Sc1ccccc1N2CCCCCl`, the EC50 is above 200 µM and the IC50 was 26.9 µM.
For `N#CC(C(=S)Nc1ccccc1)=C1Nc2ccccc2N1`, in that order: above 200 µM and above 200 µM.
With `NC(=O)c1cn(C2OC(CO)C(O)C2O)c2ncnc(N)c12` (stereo not drawn), the EC50 was above 0.2 µM and the half-maximal inhibitory concentration (IC50) turned out to be 0.00562 µM.
For `NC(=S)NNC(=O)CCC(=O)Nc1ccc(Cl)cc1Cl`, the EC50 is above 107 µM and the IC50 is above 107 µM.
With `Cc1ccc(S(=O)(=O)N2CCC[C@@H]2C(=O)O[C@@H]2CCC3CC=CC32)cc1` (stereo partly drawn), the EC50 was above 200 µM and the half-maximal inhibitory concentration (IC50) amounted to 12.6 µM.
For `COc1ccc(C(=O)c2ccc(OC)c(S(=O)(=O)N(C)C=O)c2)cc1S(=O)(=O)N(C)C=O`, in that order: above 38.9 µM and above 38.9 µM.
For `Cn1cc([N+](=O)[O-])cc1C(=O)Nc1ccc(S(=O)(=O)O)c2cc(S(=O)(=O)O)ccc12`, in that order: above 501 µM and above 501 µM.
Turning to `Clc1ccc(-c2nnc3c4nnc(-c5ccc(Cl)cc5Cl)n4c4ccccc4n23)c(Cl)c1`, the outcome was inactive.
`COc1ccc(C[C@H](N)C(=O)NC2C(CO)OC(n3cnc4c(N(C)C)ncnc43)C2O)cc1` (stereo partly drawn): the EC50 was above 200 µM and the half-maximal inhibitory concentration (IC50) came out at 0.117 µM.
On to `S=c1oc(CCCCCCCCc2nn(CNc3ccc(Cl)cc3)c(=S)o2)nn1CNc1ccc(Cl)cc1`, for which the result was inactive.
As for `O=[N+]([O-])c1ccc(/C=C/c2cc(-c3ccccc3)nc3ccc4ccccc4c23)cc1`, the EC50 is above 200 µM and the 50% inhibitory concentration (IC50) was above 200 µM.
As for `Nc1nc(N)c(-c2ccc(Cl)c(Cl)c2)c(C[P+](c2ccccc2)(c2ccccc2)c2ccccc2)n1`, the EC50 is above 200 µM and the IC50 was found to be 1.05 µM.
For `COc1cccc([N+](=O)[O-])c1N=O`, in that order: above 200 µM and 102 µM.
For `O=C(NC1(C(=O)O)CC1c1ccccc1)c1ccccc1` (stereo not drawn), in that order: above 200 µM and above 200 µM.
For `O=C(/N=N/C(=O)N1CCOCC1)N1CCOCC1`, in that order: 75.9 µM and 87.1 µM.
With `C=CCC(C(=O)OC)C1(C(=O)OC)NCCc2c1[nH]c1ccccc21` (stereo not drawn), the EC50 was above 324 µM and the 50% inhibitory concentration (IC50) is 178 µM.
Regarding `COC(F)(F)C12CC3CC(CC(C3)C1)C2`, the result was inactive.
For the compound `CC(=O)O[C@@H]1CO[C@H]2O[C@H]3[C@@H](C(C=O)=C[C@H](O)[C@@H]4C5=C(C(C)C)CC[C@]5(C)CC[C@@]34C)[C@@]2(O)C1=O`, the EC50 is above 0.575 µM and the IC50 was found to be 0.0759 µM.
On to `O=C(c1ccc(Cl)cc1)c1cc2c([nH]c1=O)CCCCC2`, for which the result was inactive.
On to `CCN(CC)CCCN1CC(=O)N2CCCCN2C(=O)C1`, for which the EC50 was above 200 µM and the IC50 is above 200 µM.
In the case of `CCOC(=O)CNC(=O)Sc1ccccc1C(=O)N[C@@H](C)C(N)=O`, the concentration giving a half-maximal response (EC50) stood at 1.82 µM and the concentration for half-maximal inhibition (IC50) turned out to be 97.7 µM.
For `CC[C@]1(Cc2ccc(OC)c(OC)c2)C=[N+]([O-])O[C@H](OC2CCCC2(c2ccccc2)c2ccccc2)[C@@H]1OC(=O)C(C)(C)C` (stereo partly drawn), in that order: above 200 µM and 1.17 µM.
For the compound `c1ccc(SCCCC(Sc2ccccc2)Sc2ccccc2)cc1`, the outcome was inactive.
As for `O=S(=O)(O)c1cc(N=[N+]([O-])c2cc(S(=O)(=O)O)c3ccccc3c2)cc2ccccc12`, the EC50 was above 200 µM and the IC50 was 93.3 µM.
With `CC(=O)Nc1nc(Cl)c2ncn(C3CCCO3)c2n1` (stereo not drawn), the EC50 was above 200 µM and the IC50 was found to be 22.4 µM.
For `Nc1ccc([N+](=O)[O-])c(S(=O)(=O)O)c1`, in that order: above 1150 µM and above 1150 µM.
As for `Oc1ccc2occ3c2c1CCC3`, the result was inactive.
On the same count and under the same terms, the entry for `COc1ccc(OC(=O)N2C/C(=C\c3ccccc3)C(=O)/C(=C/c3ccccc3)C2)cc1` is “inactive”.
Take `c1ccc(-c2cc(-c3cccs3)c(-c3cccs3)o2)cc1`: the EC50 was above 200 µM and the IC50 came to 25.7 µM.
In the case of `O=C1C=CC(=CC=C2C=CN(CCCCCCCCCCC(=O)NCCCCCCCCCCCC(=O)O)C=C2)C=C1`, the result was inactive.
`COCCc1c(C)c(C#N)c2n(C)c3ccccc3n2c1=O`: the EC50 was above 200 µM and the half-maximal inhibitory concentration (IC50) is above 200 µM.
Take `CSc1ccc(/C=C2\C=Cc3ccccc32)cc1`: the EC50 is above 28.8 µM and the IC50 is above 28.8 µM.
